Measurements: US11242508B2, “Methods relating to pluripotent cells” (priority 2014, dated 2022)
Where two headings read alike, the source gives them in different places.

Columns and labels:
Fat somatic cells = test: Percent of cells demonstrating pluripotent phenotype after stress treatment; format: cell-based, mice; conditions: 1 week-old, after 1 week of stress treatment
Excerpt: (§1) Stress alteration of mature somatic cells procured from various adult tissues. To examine whether ACCs could be generated not only mature lymphocytes but also other types of somatic cells, brain, skin, muscle, fat, bone marrow, lung and liver were harvested from Oct4-GFP (GOF) mice^8. Cells were isolated from the tissue samples, dissociated into single cells, and treated with different physical and or chemical stress conditions. The efficiency of the process to alter the cells differed as a function of both the source of cells and the stress condition(s) to which the cells were exposed (FIG. 7A). The ability of stress to alter mature cells to express Oct4, differed depending on the derivation of cells, but stress was able to alter cells to express Oct4 to some degree in mature cells derived from all three germ layers (FIG. 7A). ACC colonies derived from any mature tissue expressed pluripotent markers, E-cadherin, Nanog, PCAM-1 and AP (data not shown), and ES specific marker genes (FIG. 7B). Significant physical and chemical stresses altered mature somatic cells to revert to a stem cell state, despite of the source of tissues and derivation of the germ layers.
(§2) Exposure to external stimuli-stress treatment. To give a mechanical stress to mature cells, pasture pipette were heated and then stretched to create lumens approximately 50 microns in diameters, and then broken. Mature somatic cells were then triturated through these pipettes for 20 min, and cultured for 7 days. To provide a hypoxic stimulus to mature cells, cells were cultured in a 5% oxygen incubator for 3 weeks. An under nutrition stimulus was provided to mature cells, by culturing the cells in a basic culture medium for 3 weeks. To expose the mature cells to a physiological stress, they were treated with low pH (pH5.5) solution, and cultured for 7 days. Also, cells were given more serious damage. To create pores in mature cell membranes, cells were treated with SLO (Streptolysin O).
(§3) SLO-treated cells were incubated in HBSS containing 10 μg/mL SLO at 37° C. for 50 min and then cultured in culture medium without SLO for 7 days. Cells exposed to under-nutrition stress were cultured in basal medium for 2 to 3 weeks. […] Cells exposed to “Ca” stress were cultured in culture medium containing 2 mM CaCl2) for 2 weeks.
(§4) Fluorescence-Activated Cell Sorting and Flow Cytometry. Cells were prepared according to standard protocols and suspended in 0.1% BSA/PBS on ice prior to FACS. PI (BD Biosciences) was used to exclude dead cells. Cells were sorted on a BD FACSAria SORP and analyzed on a BD LSRII with BD FACSDiva Software (BD Biosciences).

[1] = tested on: Bone Marrow somatic cells; test: as above; format: cell-based, mice; conditions: 1 week-old, after 1 week of stress treatment
Excerpt: as §1, §2, §3, §4

Lung somatic cells = test: as above; format: cell-based, mice; conditions: 1 week-old, after 1 week of stress treatment
Excerpt: as §1, §2, §3, §4

Muscle somatic cells = test: as above; format: cell-based, mice; conditions: 1 week-old, after 1 week of stress treatment
Excerpt: as §1, §2, §3, §4

Fibroblast = test: as above; format: cell-based, mice; conditions: 1 week-old, after 1 week of stress treatment
Excerpt: as §1, §2, §3, §4

mature somatic cells = test: STAP cell generation with low pH solution containing ATP; format: cell-based; conditions: low pH solution containing ATP versus pH alone
Protocol: When this solution is used in combination with mechanical trituration of mature cells, the results were even more profound. Consequently, described herein is a protocol which incorporates these findings to increase the efficacy of generating STAP cells.
A1. Make a low pH HBSS solution containing ACT as follows and then set aside for use in step A4. […] The pH of this solution is about 3.0.
Place 5 mL of HBSS (with phenol red) [Life Technologies, 14170-161] into a 15 mL tube. Place a clean pH sensor into the HBSS. Titrate in the ACT stock solution, drop by drop, into the HBSS until the desired pH of, e.g., 5.0 is obtained. Mix the solution regularly to ensure that the measurement is accurate.
A4. […] In some embodiments, a volume of 2-3 ml of the cell suspension in a 50 ml tube can be used.

Brain somatic cells = format: cell-based, mice; conditions: 1 week-old, after 1 week of stress treatment
Protocol: Exposure to external stimuli-stress treatment. To give a mechanical stress to mature cells, pasture pipette were heated and then stretched to create lumens approximately 50 microns in diameters, and then broken. Mature somatic cells were then triturated through these pipettes for 20 min, and cultured for 7 days. To provide a hypoxic stimulus to mature cells, cells were cultured in a 5% oxygen incubator for 3 weeks. An under nutrition stimulus was provided to mature cells, by culturing the cells in a basic culture medium for 3 weeks. To expose the mature cells to a physiological stress, they were treated with low pH (pH5.5) solution, and cultured for 7 days. Also, cells were given more serious damage. To create pores in mature cell membranes, cells were treated with SLO (Streptolysin O). […]
Cells were prepared according to standard protocols and suspended in 0.1% BSA/PBS on ice prior to FACS. […] Cells were sorted on a BD FACSAria SORP and analyzed on a BD LSRII with BD FACSDiva Software (BD Biosciences).

NK-1R = format: in vivo, rat
Protocol: (§5) The highly specific cytotoxin SSP-SAP (20 uL, 1 uM) was injected into the intrathecal (i.t.) space of the male rat spinal cord in order to ablate a large majority of the neurokinin-1 receptor (NK1R)-expressing neurons. Two to 3 weeks later the normally robust hyperalgesic responses to injection of capsaicin (10 uL, 0.1%) in the plantar hindpaw, consisting of mechanical hyperalgesia to stimulation by von Frey filaments and thermal hyperalgesia appearing as a shortening of the latency of withdrawal to a radiant heat source, were almost absent. […] It thus appears that STAP stem cells can restore normal function after specific spinal neuronal loss and present a model for a therapeutic approach to spinal cord injury.
Adult male S-D rats were first handled for 4-5 days to familiarize them with the test arena, to minimize stress-induced analgesia, and to obtain Naïve and initial Baseline behavioral data. Tactile responsiveness was determined by probing the plantar surface of one hindpaw with a 15 g von Frey filament (VFH), 10 times every 3 secs. Baseline sensitivity, with no treatments and no capsaicin equaled ˜1-2 paw withdrawals per 10 probes. […] Before any intrathecal injections, the Naïve rats' responses to capsaicin injection into the hindpaw were determined to be: Tactile: 6 withdrawals/10 VFH probes, and Thermal: 6 sec latency. […]

NK1-R [2] = format: in vivo, rat; conditions: for IC50: read-out: IC50, tactile hyperalgesia
Protocol: as §5
(§6) Adult male S-D rats were first handled for 4-5 days to familiarize them with the test arena, to minimize stress-induced analgesia, and to obtain Naïve and initial Baseline behavioral data. Tactile responsiveness was determined by probing the plantar surface of one hindpaw with a 15 g von Frey filament (VFH), 10 times every 3 secs. Baseline sensitivity, with no treatments and no capsaicin equaled ˜1-2 paw withdrawals per 10 probes. Thermal sensitivity was indicated by the latency for paw withdrawal from a radiant heat source (Hargreaves method: cutoff time set at 18 sec.). Baseline latency ˜16 sec. Before any intrathecal injections, the Naïve rats' responses to capsaicin injection into the hindpaw were determined to be: Tactile: 6 withdrawals/10 VFH probes, and Thermal: 6 sec latency.

NK1-R [3] = format: in vivo, rat
Protocol: as §5, §6

NK1-R [4] = target: T1, NK1-R (Rattus norvegicus, UniProt P14600); format: in vivo; conditions: naïve rats (and rats that received Blank-SAP followed by stem cells, not shown); 30 uL i.t. injection; read-out: IC50, thermal hyperalgesia
T1 construct: from tissue; host or cells: spinal cord of living adult male Sprague-Dawley rats (in vivo, intrathecal dosing)
Protocol: as §5, §6

T1 sequence (P14600 whole entry): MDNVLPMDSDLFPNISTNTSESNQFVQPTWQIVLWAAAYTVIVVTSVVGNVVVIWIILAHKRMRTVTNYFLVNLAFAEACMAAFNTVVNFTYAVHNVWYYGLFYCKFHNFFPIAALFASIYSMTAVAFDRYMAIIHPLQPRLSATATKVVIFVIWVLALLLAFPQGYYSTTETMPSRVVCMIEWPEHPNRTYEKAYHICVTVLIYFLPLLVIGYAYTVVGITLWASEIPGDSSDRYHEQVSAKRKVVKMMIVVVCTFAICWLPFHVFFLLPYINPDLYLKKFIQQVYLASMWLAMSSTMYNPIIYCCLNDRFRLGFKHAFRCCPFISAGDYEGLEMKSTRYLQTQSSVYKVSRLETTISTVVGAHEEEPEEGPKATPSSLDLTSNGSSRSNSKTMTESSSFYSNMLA

Molecule | Percent of cells demonstrating pluripotent phenotype (Fat somatic cells) [%] | Percent of cells demonstrating pluripotent phenotype [1] [%] | Percent of cells demonstrating pluripotent phenotype (Lung somatic cells) [%] | Percent of cells demonstrating pluripotent phenotype (Muscle somatic cells) [%] | Percent of cells demonstrating pluripotent phenotype (Fibroblast) [%] | Percent of cells demonstrating pluripotent phenotype (Brain somatic cells) [%] | further results
Nc1ncnc2c1ncn2[C@@H]1O[C@H](COP(=O)([O-])OP(=O)([O-])OP(=O)(O)O)[C@@H](O)[C@H]1O.O.[Na+].[Na+] [ATP, Adenosine 5′ Triphosphate Disodium Salt Hydrate] | 79.6 | 12.3 | 9.8 | 68.4 | 25.10 | – | Efficacy of conversion to STAP cells (mature somatic cells): dramatically increased the efficacy of this conversion
[Ca+2].[Cl-].[Cl-] [Ca, CaCl2] | 2.7 | 1.2 | 1.3 | 1.5 | 3.5 | 0.8 | –
FC(F)(F)c1cc(CO[C@H]2CCCN[C@H]2c2ccccc2)cc(C(F)(F)F)c1 [L-733,060] | – | – | – | – | – | – | Enhancement of potency for inhibition of capsaicin hyperalgesia (NK-1R; STAP stem cell restored rats over Naïve rats or rats that received Blank-SAP): 10-60 times; Inhibition of the restored hyperalgesic response (NK-1R; STAP stem cell-restored rats, i.t. injection at 300 uM): fully inhibited; IC50 (NK1-R [2]; naïve rats (and rats that received Blank-SAP followed by stem cells, not shown), 30 uL i.t. injection): ~300 µM; IC50 (NK1-R [2]; stem cell-restored rats, i.t. injection): ~30 µM; IC50 (NK1-R [3]; stem cell-restored rats, i.t. injection, read-out: IC50, thermal hyperalgesia): ~5 µM; IC50 (NK1-R [4]): ~300 µM
COc1cc(CNC(=O)CCCC/C=C/C(C)C)ccc1O [capsaicin] | – | – | – | – | – | – | Tactile response to capsaicin injection into the hindpaw (NK1-R [2]; Naïve rats, before any intrathecal injections, 15 g von Frey filament): 6 withdrawals/10 VFH probes; Thermal response to capsaicin injection into the hindpaw, latency (NK1-R [3]; Naïve rats, before any intrathecal injections, radiant heat, cutoff 18 sec): 6 s
streptolysin O [SLO] | 32.8 | 13.2 | 18.4 | 20.5 | 15.2 | 10.3 | –
